Consider 5 compounds from patent publication US6750244B2, “Compounds active at a novel site on receptor-operated calcium channels useful for treatment of neurological disorders and diseases” (NPS Pharmaceuticals, Inc., priority 1993, dated 2004).

The target of data set [1] is T1, norepinephrine uptake site (Rattus norvegicus, UniProt Q63380).
T1 construct: from tissue; host or cells: rat cortical membranes (per the assay title)
Description: Norepinephrine uptake binding assay: [3H]desipramine binding to rat cortical membranes.

Data set [2] has as its target NMDA receptor-ionophore complex (site labeled by [3H]MK-801). Description: Inhibition of [3H]MK-801 binding in rat cortical/hippocampal washed membrane preparations. As to conditions: read-out: IC50 (μM) vs. [3H]MK-801; rat cortical/hippocampal washed membranes.
The subject of data set [3] is mean arterial blood pressure. As to conditions: i.v.
In a further data set the target is T2, serotonin uptake site (Rattus norvegicus, UniProt P31652).
T2 construct: from tissue; host or cells: rat forebrain membranes (per the assay title)
Description: Serotonin uptake binding assay: [3H]citalopram binding to rat forebrain membranes.

The next data set deals with T3, L-type calcium channel.
T3 construct: L-type calcium channel: estimated IC50, KCl depolarization-induced increases in intracellular calcium; other: cultured
Description: Inhibition of KCl depolarization-induced increases in intracellular calcium in cultured rat cerebellar granule cells. Format: cell-based. As to conditions: cultured rat cerebellar granule cells; read-out: L-type calcium channel: estimated IC50, KCl depolarization-induced increases in intracellular calcium. From the text:
The ability of arylalkylamines to inhibit dihydropyridine-sensitive Ca^2+ channels was examined in cerebellar granule cells and a rat aortic smooth muscle cell line, A7r5 cells.

Data set [4] deals with central muscarinic cholinergic receptor. Format: binding, rat.
The target of a further data set is T4, dopamine uptake site (Cavia porcellus, UniProt H0WCX4).
T4 construct: from tissue; host or cells: guinea pig striatal membranes (per the assay title)
Description: Dopamine uptake binding assay: [3H]WIN-35,428 binding to guinea pig striatal membranes.

For the next data set, the system named is NMDA receptor. Description: Inhibition of NMDA/glycine-induced increases in intracellular calcium in cultured rat cerebellar granule cells (RCGC). Format: cell-based. As to conditions: NMDA/glycine-induced increases in intracellular calcium, cultured rat cerebellar granule cells; read-out: IC50 (μM) vs. NMDA.
A further data set has as its system sound-induced seizures. Description: Sound-induced seizures in Frings mice (reflex epilepsy). It is filed as in vivo. As to conditions: Mus musculus, Frings mice.
The next data set relates to focal ischemic stroke. Description: Rat model of focal ischemic stroke (vessel occlusion). Format: in vivo, rats. As to conditions: i.p. 2 mg/kg 30 min prior to vessel occlusion and 2 mg/kg 3 hr post-occlusion.
A short description of another data set: in vivo. As to conditions: mouse, in vivo. The protocol:
In this assay, Frings and CF1 mice were injected with test compound and placed on a knurled rod which rotated at a speed of 6 rpm. The ability of the mice to maintain equilibrium for long periods of time was determined; those mice that were unable to maintain equilibrium on the rotorod for 1 min in each of 3 trials were considered impaired.

The test system of the next data set is seizure threshold. Description: i.v. Metrazol test (seizure threshold) in mice. It is filed as in vivo.
Data set [5] relates to maximal electroshock-induced seizures. Description: Maximal electroshock-induced seizures in mice. Format: in vivo. As to conditions: Mus musculus, ip; mice. Background: Protection in the maximal electroshock model is a classic sign of anticonvulsant action.
Data set [6] concerns behavior. Description: Behavioral effects in conscious male Wistar rats.
The subject of data set [7] is behavior. Description: Behavioral effects in conscious beagle dogs.
Another data set has as its system temporary focal ischemia. Description: Temporary focal cerebral ischemia (middle cerebral artery occlusion, suture withdrawn after 2 hr). Format: in vivo, rat. The protocol: In a fourth model of focal cerebral ischemia in the rat, the middle cerebral artery was temporarily occluded by passing a small piece of suture thread through the carotid artery to the region of the middle cerebral artery. The suture thread was withdrawn after an ischemic period of 2 hr. Core body temperature was maintained at 37° C. […]

The test system of data set [8] is mean arterial pressure, heart rate, ECG. Description: Cardiovascular activity in conscious beagle dogs.
For the next data set, the system named is focal ischemia. Description: Photothrombotic (Rose Bengal) model of focal cerebral ischemia. As to conditions: 10 mg/kg i.p. at 15 min, 3 hr, and again 6 hr post-occlusion. It is filed as in vivo, rat. From the text:
In a third model of focal cerebral ischemia in the rat, an ischemic infarct was produced by a photothrombotic method using the dye Rose Bengal.

In a further data set the test system is PBQ-elicited writhing. Format: in vivo. As to conditions: 4 mg/kg i.p. The protocol:
In the first series of experiments, the animals were administered an unpleasant stimulus (2-phenyl-1,4-benzoquinone, PBQ) which elicits a writhing response (abdominal stretching). Typically, the number of writhes occurring in a 5 min observation period is recorded. […] Nonsteroidal antiinflammatory agents are likewise effective in this model.

The mark [9] stands for this setting: 3 mg/kg i.v. (60 sec bolus injection).
The mark [10] stands for this setting: 10 mg/kg i.v. (60 sec bolus injection).

Where two headings read alike, the source gives them in different places.

Usually IC50 stands for the concentration that gives 50% inhibition. As a reminder, the ED50 is the dose at which the effect has come halfway, by size or by number of responders. Lower therefore signals greater potency.

T2 sequence (P31652 whole entry): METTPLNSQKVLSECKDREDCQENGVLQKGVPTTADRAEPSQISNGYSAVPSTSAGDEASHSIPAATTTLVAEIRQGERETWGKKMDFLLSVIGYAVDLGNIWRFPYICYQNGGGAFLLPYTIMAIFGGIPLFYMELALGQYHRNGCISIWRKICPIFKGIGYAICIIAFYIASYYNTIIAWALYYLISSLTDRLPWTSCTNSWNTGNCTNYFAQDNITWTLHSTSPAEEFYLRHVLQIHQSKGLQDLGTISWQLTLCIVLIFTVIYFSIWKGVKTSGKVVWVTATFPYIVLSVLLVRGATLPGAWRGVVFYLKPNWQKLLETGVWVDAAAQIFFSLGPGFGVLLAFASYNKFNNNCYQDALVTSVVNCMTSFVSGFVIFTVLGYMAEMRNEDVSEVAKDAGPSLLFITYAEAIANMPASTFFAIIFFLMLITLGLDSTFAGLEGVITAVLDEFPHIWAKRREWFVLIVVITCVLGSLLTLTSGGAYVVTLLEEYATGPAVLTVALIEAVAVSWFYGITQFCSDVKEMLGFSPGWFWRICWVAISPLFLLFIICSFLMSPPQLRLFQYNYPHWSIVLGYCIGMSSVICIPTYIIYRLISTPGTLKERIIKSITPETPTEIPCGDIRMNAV
T4 sequence (H0WCX4 1-619): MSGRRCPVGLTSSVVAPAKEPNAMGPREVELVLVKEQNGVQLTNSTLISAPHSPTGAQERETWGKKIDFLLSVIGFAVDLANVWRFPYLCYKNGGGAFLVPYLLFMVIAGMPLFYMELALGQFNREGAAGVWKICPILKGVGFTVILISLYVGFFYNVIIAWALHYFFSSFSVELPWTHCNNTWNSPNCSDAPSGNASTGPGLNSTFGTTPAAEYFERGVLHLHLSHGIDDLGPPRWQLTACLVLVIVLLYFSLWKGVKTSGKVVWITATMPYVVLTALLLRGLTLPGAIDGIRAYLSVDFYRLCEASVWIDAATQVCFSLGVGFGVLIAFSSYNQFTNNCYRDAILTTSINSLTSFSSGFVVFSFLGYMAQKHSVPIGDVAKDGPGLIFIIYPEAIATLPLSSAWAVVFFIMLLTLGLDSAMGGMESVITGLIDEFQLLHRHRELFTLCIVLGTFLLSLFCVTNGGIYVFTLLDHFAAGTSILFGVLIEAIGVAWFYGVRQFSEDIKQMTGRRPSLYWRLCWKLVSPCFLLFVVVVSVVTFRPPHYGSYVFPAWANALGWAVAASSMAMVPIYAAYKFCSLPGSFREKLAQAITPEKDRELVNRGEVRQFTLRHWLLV
T1 sequence (Q63380 1-617): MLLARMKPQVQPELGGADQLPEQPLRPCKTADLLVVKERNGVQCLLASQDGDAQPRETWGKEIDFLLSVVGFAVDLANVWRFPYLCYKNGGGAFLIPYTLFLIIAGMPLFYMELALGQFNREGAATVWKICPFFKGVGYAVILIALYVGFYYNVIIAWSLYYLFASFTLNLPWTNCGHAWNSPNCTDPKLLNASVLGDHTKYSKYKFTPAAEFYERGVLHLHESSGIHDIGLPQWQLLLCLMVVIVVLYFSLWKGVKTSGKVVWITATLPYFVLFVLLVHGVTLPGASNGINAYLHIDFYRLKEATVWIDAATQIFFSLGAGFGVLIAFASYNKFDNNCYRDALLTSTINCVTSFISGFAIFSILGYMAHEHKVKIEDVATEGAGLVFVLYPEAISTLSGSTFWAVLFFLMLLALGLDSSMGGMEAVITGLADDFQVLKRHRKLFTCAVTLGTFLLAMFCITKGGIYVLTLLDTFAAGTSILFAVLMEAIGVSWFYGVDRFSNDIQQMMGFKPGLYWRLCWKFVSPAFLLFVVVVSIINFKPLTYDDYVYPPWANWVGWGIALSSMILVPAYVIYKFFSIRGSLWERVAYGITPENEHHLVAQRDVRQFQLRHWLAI

As for `Cc1ccc(F)cc1C(CCN)c1cc(F)ccc1C` [Compound 58, 3,3-bis(3-fluoro-6-methylphenyl)-1-propylamine], the entries for the “Monoamine uptake binding assays: norepinephrine uptake binding assay, percent block” value in data set [1] (at 0.1 μM) and in [1] (at 10 μM) were 10^f1% at and 0.1^g67% at, respectively. The IC50 was 0.203 µM in data set [2], 2600 nM with L-type calcium channel and 0.028 µM in the data set on NMDA receptor. In addition, the “no significant cardiovascular activity in anesthetized rats at doses up to” value in [3] is “up to 2 mg/kg”. Moreover, the results for the “Monoamine uptake binding assays: serotonin uptake binding assay, percent block” value at serotonin uptake site (at 0.1 μM) and on serotonin uptake site (at 10 μM) were 10^g27% at and 0.1^h95% at, respectively. The results for the “Central muscarinic cholinergic receptor: percent block of [3H]QNB binding” value in [4] (at 0.1 μM) and in data set [4] (at 10 μM) were 1% at and 0.148% at, respectively. The “Monoamine uptake binding assays: dopamine uptake binding assay, percent block” value is given as 0% at on dopamine uptake site (at 0.1 μM) and 0.1^f45% at at dopamine uptake site (at 10 μM). For the same compound, it took a dose of 0.9 mg/kg to reach the 50% effect level in the data set with sound-induced seizures (ip) (ED50). In addition, the “neuroprotectant activity in a rat model of focal ischemic stroke” value in the data set with focal ischemic stroke was “no significant neuroprotectant activity”. The TD50 in “in vivo” (Frings, ip) turned out to be 14.5 mg/kg.

Take `CCNCCC(c1cccc(F)c1)c1cccc(F)c1` [Compound 59, N-ethyl-3,3-bis(3-fluorophenyl)-1-propylamine]: the “Monoamine uptake binding assays: norepinephrine uptake binding assay, percent block” value in data set [1] (at 0.1 μM) is 10^f7% at; in data set [1] (at 10 μM), 0.1^g51% at. Also, the half-inhibitory concentration (IC50) came out at 0.453 µM in data set [2] and 0.272 µM in the data set on NMDA receptor. In addition, in data set [3], the “no significant cardiovascular activity in anesthetized rats at doses up to” value is listed as “up to 10 mg/kg”. The figures for the “Monoamine uptake binding assays: serotonin uptake binding assay, percent block” value at serotonin uptake site (at 0.1 μM) and at serotonin uptake site (at 10 μM) were 10^g14% at and 0.1^h86% at, respectively. The “Central muscarinic cholinergic receptor: percent block of [3H]QNB binding” value in data set [4] (at 0.1 μM) is listed as 9% at; in data set [4] (at 10 μM) it was 0.187% at. Besides, the “Monoamine uptake binding assays: dopamine uptake binding assay, percent block” value at dopamine uptake site (at 0.1 μM) was 2% at; at dopamine uptake site (at 10 μM), 0.1^f78% at. In addition, the ED50 in the data set with sound-induced seizures (ip) was 2.7 mg/kg. Besides, in the data set on focal ischemic stroke, the “neuroprotectant activity in a rat model of focal ischemic stroke” value is recorded as “no significant neuroprotectant activity”. Further, the TD50 in “in vivo” (Frings, ip) worked out at 7.8 mg/kg. The “seizure threshold, i.v. Metrazol test” value in the data set on seizure threshold (11.7 mg/kg i.p.) is “a reduction in seizure threshold”.

As to `CNCCC(c1cccc(F)c1)c1cccc(F)c1` [Compound 60, N-methyl-3,3-bis(3-fluorophenyl)-1-propylamine], the values for the ED50 (in data set [5]; in the data set with sound-induced seizures (ip); in the data set with sound-induced seizures (oral)) were 8.17 mg/kg, 4.4 mg/kg and 10 mg/kg, respectively. For the same compound, the behavioral effects entry in the data set on behavior [6] (16 mg/kg i.v.) was “Straub tail, convulsions, and death”; with behavior [6] (dose of a mg/kg i.v.) it was “excitation, stereotypies, increased reactivity to touch, increased muscle tone, and tremor”; with behavior [6] (doses up to 4 mg/kg i.v.), “no significant behavioral effects”; in the data set with behavior [7] (setting [9]), “a slight increase in respiratory rate”; in the data set on behavior [7] (setting [10]), “dilated pupils, whole body tremors, salivation, and urination”; in the data set with behavior [7] (0.3 and 1 mg/kg i.v. (60 sec bolus injection)), “no significant behavioral effects”. Moreover, the “Monoamine uptake binding assays: norepinephrine uptake binding assay, percent block” value in data set [1] (at 0.1 μM) is 16%; in data set [1] (at 10 μM), “at 0.1^g64%”. Also, the IC50 was 914 nM in data set [1] (read-out: Monoamine uptake binding assays: norepinephrine uptake binding assay, IC50); 0.641 µM in data set [2]; 68 nM on serotonin uptake site (read-out: Monoamine uptake binding assays: serotonin uptake binding assay, IC50); 2300 nM in the data set on L-type calcium channel; 0.416 µM with NMDA receptor. For the same compound, the “neuroprotectant activity in a rat model of temporary focal ischemic stroke” value was “significant neuroprotectant activity” in the data set on temporary focal ischemia (i.p. or i.v. 1 mg/kg 2 hr and again 8 hr post-occlusion); “significant neuroprotectant activity” in the data set on temporary focal ischemia (i.v. 1 mg/kg 2 hr post-occlusion). In addition, the “Central muscarinic cholinergic receptor: percent block of [3H]QNB binding” value amounted to 13% at in data set [4] (at 0.1 μM) and 0.193% at in [4] (at 10 μM). For the same compound, in data set [8] (0.3 mg/kg i.v. (60 sec bolus injection)), the cardiovascular activity entry is “no significant cardiovascular activity”. The mean arterial pressure entry in [8] (1 mg/kg i.v. (60 sec bolus injection)) is “transient increases in mean arterial pressure”; in data set [8] (setting [9]) it was “transient increases in mean arterial pressure”; in [8] (setting [10]), “larger magnitude and longer duration effects”. The heart rate result in [8] (setting [9]) and in [8] (setting [10]) was “transient increases in heart rate” each time. Besides, the “changes in the ECG” value in [8] (doses up to 10 mg/kg i.v. (60 sec bolus injection)) is on record as “no significant changes in the ECG”. Also, the “dose without neuronal vacuolization” value amounted to 20 mg/kg in the data set on neuronal vacuolization (i.p.) and 10 mg/kg with neuronal vacuolization (i.v.). Further, the “neuroprotectant activity in a rat model of focal ischemic stroke” value in the data set with focal ischemic stroke was “significant neuroprotectant activity”. The TD50 was determined as 9.2 mg/kg in the data set “in vivo” (Frings, ip); 25.6 mg/kg in the data set “in vivo” (Frings, po); 17.3 mg/kg in the data set “in vivo” (ip). Besides, the “seizure threshold, i.v. Metrazol test” value with seizure threshold (1 and 4 mg/kg i.p.) is recorded as “no effect on seizure threshold”; in the data set on seizure threshold (8 and 17 mg/kg i.p.), “a reduction in seizure threshold”. Moreover, the “neuroprotectant activity, photothrombotic model” value in the data set on focal ischemia is on record as “no significant neuroprotectant activity”.

`NC(=O)CC(c1cccc(F)c1)c1cccc(F)c1` [Compound 151, 3,3-Bis(3-fluorophenyl)propanamide] yielded an ED50 in [5] of 36.5 mg/kg. Besides, the values for the IC50 (in data set [2]; in the data set with NMDA receptor) were above 100 µM and 54.9 µM, respectively. Moreover, the TD50 in “in vivo” (ip) worked out at 108 mg/kg. Besides, in the data set with seizure threshold (36.5 and 108 mg/kg i.p.), the “seizure threshold, i.v. Metrazol test” value is reported as “a significant increase in seizure threshold”.

As for `CN1CC[C@]23c4c5ccc(O)c4O[C@H]2[C@@H](O)C=C[C@H]3[C@H]1C5` [morphine, reference compound], in the data set on PBQ-elicited writhing, the “block of the writhing response” value worked out at 100%.
